The source of these data is US20250213560A1, “NITROGEN-CONTAINING HETEROCYCLIC COMPOUNDS HAVING PHENYL GROUP AND USES THEREOF” (BNH RESEARCH CO., LTD., priority 2022, published 2025).

For data set [1], the system named is 293T cells. Kind of data set: Cytotoxicity test (CCK-8 cell viability) in 293T cells. Conditions: 293T cell line. Type of data set: cell-based, human. The procedure: Human undifferentiated neuroblastoma cell line SH-SY5Y and human embryonic kidney cell line (HEK)-293T were purchased from Korean Cell Line Bank (Korea) and Takara (Japan), respectively. Cells were grown in HyClone Minimal Essential Medium (MEM) and Dulbecco's Modified Eagle Medium (DMEM), respectively, supplemented with 10% (v/v) fetal bovine serum (FBS), penicillin (100 U/mL), and streptomycin ([…]). Cells were maintained in a humidified atmosphere of 95% air and 5% CO2 at 37° C. Cells were passaged 10 times at maximum. Cells were dissociated using 0.05% trypsin-EDTA solution and the cells were seeded in new culture dishes for maintenance.
To examine the cytotoxicity of compounds described herein in human cell lines, SH-SY5Y and 293T cells were used. Approximately 8,000 cells (for 293T) and 15,000 cells (for SH-SY5Y) were plated per well of a 96-well plate (SPL Life Sciences Co., Ltd., Pocheon, Korea). After incubating at 37° C. for 24 hours in a humidified atmosphere containing 5% CO2, the culture medium was replaced by a series of concentrations of test compounds diluted in the corresponding culture medium.
The time of co-incubation was 24 hours and six replicates were made for each measurement. Finally, 10 μL of CCK-8 reagent (Dojindo Laboratories, Rockville, MD) was added to each well, and after incubation at 37° C. for 3 minutes, the OD at 450 nm was measured using a multifunction microplate reader (Tecan Infinite M200 Pro). These measurements were compared to that of a control and expressed as a percentage of the control to calculate cell viability. The IC50 value was calculated using SPSS software. To do this, the absorbance of the blank wells with only growth medium is subtracted from the values or the wells with cells. The readout value of background (vehicle) was set as a 100% viability, and then the percent viability for each test solution was calculated.
The data was presented as the mean value and standard error of the mean (S.E.M.). Statistical analysis was performed with the one-way ANOVA with Tukey's post hoc test (GraphPad Prism 5 software package, version 5.02, GraphPad Software Inc. USA). Significance was accepted at p<0.05.
The cytotoxicity of the compound was evaluated by treating cells with BnH12003 and measuring cell viability.
By treating cells with various BnH12 series compounds and measuring cell viability using the experimental procedure described in Example 2, the cytotoxicity of the compounds was evaluated.

The subject of data set [2] is GluN2B. Kind of data set: GluN2B protein expression by Western blot in primary cortical neuron cells. The data set is classed as cell-based, mouse. Conditions: for Western blot results Mean (GluN2B expression): relative value, vehicle set to 1, primary cortical neurons treated for 24 hours; for GluN2B expression effect (in words): compared to vehicle / other compounds, Table 5. The procedure:
Meanwhile, primary cortical neuron cells were isolated from cerebral cortices of 18-day-old mouse fetuses, incubated in prep media (composition (mM): NaCl 107.5, NaH2PO4 1, NaHCO333.5, glucose 11, HEPS 1%, penicillin-streptomycin 1%) containing 0.25% trypsin and DNasel for 30 minutes, dissociated into single cells, and seeded. Primary cortical neuron cells were grown in Neurobasal medium supplemented with 1% (v/v) B27, 1% penicillin (100 U/mL), streptomycin ([…]), and 1% Glutamax. Cells were maintained in a humidified atmosphere of 95% air and 5% CO2 at 37° C. Drug efficacy was evaluated after culturing primary cortical neuron cells for 14 days.
The amount of GluN2B reacted with the compound of the present disclosure was measured using Western blot. The fetal cerebral cortex was extracted from mice at 17 days of gestation, dissociated into single cells, cultured for 13 days, and treated with BnH drugs for 24 hours. The drug-treated cells were subjected to protein lysate preparation using RIPA protein lysis buffer containing protease and phosphatase inhibitors. The protein concentration was determined using a BCA protein assay kit (Pierce Biotechnology) using bovine serum albumin as a standard. Equal amounts of protein (20 μg per lane) were separated by electrophoresis on SDS-polyacrylamide gels at 90 V for 2 hours, then transferred from the SDS-polyacrylamide gel to PVDF membrane at 100 V for 1 hour. Then, primary reaction with GluN2B antibody (ab65783, Abcam) was performed at 4° C. for 1 day, washed three times at 10-minutes intervals with 1×PBT, and secondary reaction was performed with anti-mouse antibody (sc-2357, Santa Cruz) for 1 hour, followed by washing three times at 10-minutes intervals with 1×PBT. Western blotting was performed as described above to confirm GluN2B protein expression. Subsequently, each blot was re-probed using anti-β-actin antibody (sc-47778, Santa Cruz). Housekeeping protein B-actin was detected as a normalization control.
The increase and decrease of BnH12 series were confirmed by setting the vehicle to 1 (N for each group was 3 or more).
Using the experimental procedure described in Example 3, it was determined whether various BnH12 series compounds increase GluN2B expression, and the results are shown in Table 5. These in vitro experimental results are expressed as relative values to the group (vehicle) that was not treated with the compound, with the effect of the group set to 1.
(In general: Immunoblotting shows a protein as a band on a membrane.)

On to `CCN(CC)c1ccc(-c2ccc(CC(=O)N3C[C@H](C(=O)O)CC[C@@H]3C)cc2)cc1` [BnH12090, (3R,6S)-1-(2-(4′-(diethylamino)-8 1,1′-biphenyl9-4-yl)acetyl)-6-methylpiperidine-3-carboxylic acid], for which, in data set [1], the “Cell viability test results (CCK) 10 uM” value is on record as 85%< and the “Cell viability test results (CCK) 100 uM” value came to 30%<. Also, the “Western blot results Mean (GluN2B expression)” value (“Western blot results Mean” for short) in data set [2] is on record as 1.698.

For `C[C@H]1CC[C@@H](C(=O)O)CN1C(=O)Cc1cccc(-c2ccncc2)c1` [BnH12091, (3R,6S)-6-methyl-1-(2-(3-(pyridin-4-yl)phenyl)acetyl) piperidine-3-carboxylic acid], in data set [1], the “Cell viability test results (CCK) 10 uM” value is 95%< and the “Cell viability test results (CCK) 100 uM” value is listed as 85%<. Moreover, in data set [2], the “GluN2B expression effect (in words)” value is given as “excellent effects” and the “Western blot results Mean” value was 5.013.

`COc1ccc(-c2cccc(CC(=O)N3C[C@H](C(=O)O)CC[C@@H]3C)c2)cn1` [BnH12092, (3R,6S)-1-(2-(3-(6-methoxypyridin-3-yl)phenyl)acetyl)-6-methylpiperidine-3-carboxylic acid]: in data set [1], the “Cell viability test results (CCK) 10 uM” value is given as 90%< and the “Cell viability test results (CCK) 100 uM” value is listed as 75%<. Moreover, in data set [2], the “GluN2B expression effect (in words)” value is “excellent effects” and the “Western blot results Mean” value is listed as 3.524.

As for `C[C@H]1CC[C@@H](C(=O)O)CN1C(=O)Cc1cccc(-c2ncc(F)cn2)c1` [BnH12093, (3R,6S)-1-(2-(3-(5-fluoropyrimidin-2-yl)phenyl)acetyl)-6-methylpiperidine-3-carboxylic acid], in data set [1], the “Cell viability test results (CCK) 10 uM” value is on record as 85%< and the “Cell viability test results (CCK) 100 uM” value came to 80%<. In addition, the “Western blot results Mean” value in data set [2] amounted to 1.611.

Turning to `C[C@H]1CC[C@@H](C(=O)O)CN1C(=O)Cc1cccc(-c2cncnc2)c1` [BnH12095, (3R,6S)-6-methyl-1-(2-(3-(pyrimidin-5-yl)phenyl)acetyl) piperidine-3-carboxylic acid], in data set [1], the “Cell viability test results (CCK) 10 uM” value was 80%< and the “Cell viability test results (CCK) 100 uM” value is 75%<. In addition, in data set [2], the “GluN2B expression effect (in words)” value is recorded as “excellent effects” and the “Western blot results Mean” value was 2.871.
